Data taken from ChEMBL document CHEMBL1147896, “Small molecule inhibitors of E. coli primase, a novel bacterial target” (Bioorg Med Chem Lett, 2007).
Values after ≈ are worked out from the molar mass of the structure shown.

Experiments:
[1] = Inhibition of Escherichia coli primase by scintillation proximity assay
[2] = system: Escherichia coli; test: Antibacterial activity against Escherichia coli; format: functional

| SMILES | IC50 [1] [µM] | MIC [2] [µg/mL] |
| --- | --- | --- |
| CSc1nc(NCCN2CCOCC2)c2sc3nc(C(C)C)c4c(c3c2n1)CCC4 | > 200 | > 64 |
| CSc1nc(NCCN(C)C)c2sc3nc(CC(C)C)c4c(c3c2n1)CCC4 | 22 | 4 (≈ 9.62 µM) |
| c1csc(-c2cn3c4ccccc4n(CCN4CCCCC4)c3n2)c1 | 32.3 | 64 (≈ 183 µM) |
| CCCCc1nc2sc3c(NCCN(C)C)nc(SC)nc3c2c2c1CCC2 | 103 | 8 (≈ 19.2 µM) |
| Cc1ccc(-c2cn3c4ccccc4n(CCN4CCCCC4)c3n2)cc1 | 99.5 | 64 (≈ 179 µM) |
| CCc1nc(N2CCN(CC)CC2)c2oc3ccccc3c2n1 | 170 | > 64 |
| CCN(CC)CCNc1nc(SC)nc2c1sc1nc(C(C)C)c3c(c12)CCC3 | 36 | > 64 |
| CN1CCN(c2ncnc3c2oc2ccccc23)CC1 | 85.1 | 64 (≈ 239 µM) |
| CSc1nc(NCCN(C)C)c2sc3nc(C(C)C)c4c(c3c2n1)CCC4 | 26.6 | 8 (≈ 19.9 µM) |
| CC(C)c1nc2sc3c(NCCN(C)C)ncnc3c2c2c1CCCC2 | 61 | 16 (≈ 43.3 µM) |
| CCN1CCN(c2nc(-c3ccncc3)nc3ccccc23)CC1 | 27.3 | > 64 |
| CCN(CC)CCNc1nc(SC)nc2c1sc1nc(C)c3c(c12)CC(C)(C)OC3 | 16.9 | 32 (≈ 71.8 µM) |
| c1ccc(-c2cn3c4ccccc4n(CCN4CCCCC4)c3n2)cc1 | 18.4 | 64 (≈ 186 µM) |
| CN1CCN(c2nc(Nc3cccc(O)c3)nc3ccccc23)CC1 | 50.5 | > 64 |
| CN1CCN(c2nc(-c3ccccc3)nc3c2oc2ccccc23)CC1 | 42.5 | > 64 |
| CCN1CCN(c2nc(SC)nc3c2sc2nc(C(C)C)c4c(c23)CCC4)CC1 | > 200 | > 64 |
| CN(C)CCNc1cc(-c2ccncc2)nc(-c2ccccn2)n1 | 44.7 | > 64 |
| c1ccc2c(c1)oc1c(N3CCN(C4CCCC4)CC3)ncnc12 | 122 | > 64 |
| CCN(CC)CCNc1nc(SC)nc2c1sc1nc(N3CCOCC3)c3c(c12)CC(C)(C)OC3 | 45 | 64 (≈ 124 µM) |
| COc1ccc(-c2cn3c4ccccc4n(CCN4CCCCC4)c3n2)cc1 | 162 | > 64 |
| CN(C)CCOc1nc(-c2ccccc2)nc2c1oc1ccccc12 | 3.4 | 4 (≈ 12 µM) |
| OCCN1CCN(c2ncnc3c2oc2ccccc23)CC1 | 138 | 64 (≈ 215 µM) |
| CN1CCN(c2nc(-c3ccc(Cl)cc3)nc3c2oc2ccccc23)CC1 | > 200 | > 64 |
| CN1CCN(c2nc(-c3ccccc3O)nc3ccccc23)CC1 | 7.2 | > 64 |
| CSc1nc(NCCN(C)C)c2sc3nc(CC(C)C)c4c(c3c2n1)CC(C)(C)OC4 | 79.2 | > 64 |
